Experimental data reported in patent US5241059A, “Cyclodextrin derivatives” (Toppan Printing Co., Ltd., priority 1990, dated 1993).
Read-outs that look alike come from different tables or passages of the source.

Experiments:
[1] = cited from earlier work

Row | Compound | Water Solubility (water) [g/100 ml H2 O] | other results
1 | O=C(O)COCC1OC2OC3C(COCC(=O)O)OC(OC4C(COCC(=O)O)OC(OC5C(COCC(=O)O)OC(OC6C(COCC(=O)O)OC(OC7C(COCC(=O)O)OC(OC8C(COCC(=O)O)OC(OC1C(O)C2O)C(O)C8O)C(O)C7O)C(O)C6O)C(O)C5O)C(O)C4O)C(O)C3O (stereo not drawn) [Heptacarboxylic acid β-CD] | > 300 | 
2 | mono-6-dihydroxyphosphonyl-6-deoxy β-CD [Monophosphoric acid β-CD] | > 250 | 
3 | Hydroxypropyl β-CD |  | Water Solubility [1]: 115 g/100 ml H2 O
4 | C[N+](C)(C)CC1OC2OC3C(CO)OC(OC4C(CO)OC(OC5C(CO)OC(OC6C(CO)OC(OC7C(CO)OC(OC8C(CO)OC(OC1C(O)C2O)C(O)C8O)C(O)C7O)C(O)C6O)C(O)C5O)C(O)C4O)C(O)C3O.[Cl-] (stereo not drawn) [Monotrimethylammonium (chloride) β-CD] |  | Water Solubility (25° C.): > 200 g/100 ml H2 O
